Results: US12285406B1, “Method of treating cancer with a selenide” (priority 2024, dated 2025)
In brackets after ≈: the same amount, converted by molar mass.

What was measured:
MMP2 = experiment: Protein expression level in MDA-MB-468 cells: MMP2; assay type: cell-based, human; details: compared to the control (untreated) cells
[1] = tested on: pharynx squamous carcinoma (FaDu); experiment: Antitumor activity (growth inhibition, cytotoxic IC50) against FaDu; assay type: cell-based; details: Homo sapiens; for inhibition at 100 µg/mL: 100 μg/mL, read-out: growth inhibition percentage
Caspase 6 = experiment: Protein expression level in MDA-MB-468 cells: Caspase 6; assay type: cell-based, human; details: in comparison to the control (untreated) cells
[2] = tested on: triple-negative breast cancer (MDA-MB-468); experiment: Antitumor activity (growth inhibition, cytotoxic IC50) against MDA-MB-468; assay type: cell-based; details: Homo sapiens; for inhibition at 100 µg/mL: 100 μg/mL, read-out: growth inhibition percentage
cervical cancer (HeLa) = experiment: Antitumor activity (growth inhibition, cytotoxic IC50) against HeLa; assay type: cell-based; details: Homo sapiens; for inhibition at 100 µg/mL: 100 μg/mL, read-out: growth inhibition percentage
Caspase 3 = experiment: Protein expression level in MDA-MB-468 cells: Caspase 3; assay type: cell-based, human; details: in comparison to the control (untreated) cells
BCL-2 = experiment: Protein expression level in MDA-MB-468 cells: BCL-2; assay type: cell-based, human; details: compared to the control (untreated) cells
[3] = tested on: human oral epithelial normal cell line (OEC); experiment: Growth inhibition of normal cell line OEC; assay type: cell-based
MMP9 = experiment: Protein expression level in MDA-MB-468 cells: MMP9; assay type: cell-based, human; details: compared to the control (untreated) cells
[4] = tested on: colorectal carcinoma (HCT116); experiment: Antitumor activity (growth inhibition) against HCT116; assay type: cell-based; details: Homo sapiens, HCT-116, 100 μg/mL, read-out: growth inhibition percentage
BAX = experiment: Protein expression level in MDA-MB-468 cells: BAX; assay type: cell-based, human; details: in comparison to the control (untreated) cells
IL-6 = experiment: Protein expression level in MDA-MB-468 cells: IL-6; assay type: cell-based, human; details: compared to the control (untreated) cells
p53 = experiment: Protein expression level in MDA-MB-468 cells: p53; assay type: cell-based, human; details: in comparison to the control (untreated) cells
Caspase 8 = experiment: Protein expression level in MDA-MB-468 cells: Caspase 8; assay type: cell-based, human; details: in comparison to the control (untreated) cells
IL-1β = experiment: Protein expression level in MDA-MB-468 cells: IL-1β; assay type: cell-based, human; details: compared to the control (untreated) cells
Caspase 9 = experiment: Protein expression level in MDA-MB-468 cells: Caspase 9; assay type: cell-based, human; details: in comparison to the control (untreated) cells
COX-2 = experiment: Protein expression level in MDA-MB-468 cells: COX-2; assay type: cell-based, human; details: compared to the control (untreated) cells
[5] = tested on: human non-small cell lung cancer (A549); experiment: Antitumor activity (growth inhibition, cytotoxic IC50) against A549; assay type: cell-based; details: for inhibition at 100 µg/mL: 100 μg/mL, read-out: growth inhibition percentage
prostate cancer (PC3) = experiment: Antitumor activity (growth inhibition) against PC3; assay type: cell-based; details: Homo sapiens, 100 μg/mL, read-out: growth inhibition percentage
[6] = read-out: cytotoxic inhibitory concentration 50 (IC50)

In the case of `N#C[Se]CCCN1C(=O)c2ccccc2C1=O` [DS128, 2-(3-selenocyanatopropyl) isoindoline-1,3-dione], the “downregulation of MMP2 protein” value (MMP2) is reported as 0.43 times, the inhibition at 100 µg/mL [1] is reported as 83.8% and the IC50 [1, 6] is reported as 5.46 mg/L (≈ 18.6 µM). The “upregulation of Caspase 6 protein” value (Caspase 6) was 2.46 times, the inhibition at 100 µg/mL [2] was 86% and the IC50 [2, 6] was 4.33 mg/L (≈ 14.8 µM). For the same compound, the inhibition at 100 µg/mL (cervical cancer (HeLa)) was 75.1%, the IC50 (cervical cancer (HeLa); [6]) was 5.36 mg/L (≈ 18.3 µM) and the “upregulation of Caspase 3 protein” value (Caspase 3) was 1.27 times. For the same compound, the “downregulation of BCL-2 protein” value (BCL-2) was 0.44 times, the growth inhibition percentage [3] was 40.02% and the “downregulation of MMP9 protein” value (MMP9) was 0.47 times. For the same compound, the inhibition at 100 µg/mL [4] was 78.5%, the “upregulation of BAX protein” value (BAX) was 1.68 times and the “downregulation of IL-6” value (IL-6) was 0.40 times. The “upregulation of p53 protein” value (p53) was 1.77 times, the “upregulation of Caspase 8 protein” value (Caspase 8) was 6.71 times and the “downregulation of IL-1β” value (IL-1β) was 0.42 times. The “upregulation of Caspase 9 protein” value (Caspase 9) was 2.00 times, the “downregulation of COX-2” value (COX-2) was 0.48 times and the inhibition at 100 µg/mL [5] was 77.7%. The IC50 [5, 6] was 5.4 mg/L (≈ 18.4 µM) and the inhibition at 100 µg/mL (prostate cancer (PC3)) was 83.2%.
Compound `COc1cccc2c1C(=O)c1c(O)c3c(c(O)c1C2=O)C[C@@](O)(C(=O)CO)C[C@@H]3O[C@H]1C[C@H](N)[C@H](O)[C@H](C)O1` [doxorubicin, reference compound] has an inhibition at 100 µg/mL [1] of 92.9%, an inhibition at 100 µg/mL [2] of 96% and an inhibition at 100 µg/mL (cervical cancer (HeLa)) of 92.7%. For the same compound, the growth inhibition percentage [3] was 57.89%, the inhibition at 100 µg/mL [4] was 71% and the inhibition at 100 µg/mL [5] was 86.4%. The inhibition at 100 µg/mL (prostate cancer (PC3)) was 89.9%.
